Data on 9 compounds can be found in PMC11813896, “Bis(7)-harmine derivatives as potential multi-target anti-Alzheimer agents” (Frontiers in Chemistry, 2025).

Data set [1] concerns AChE. The conditions noted are these: ref Rook et al., 2010; Zhao et al., 2018; read-out: AChE (bis-(2)-β-carboline 4, Figure 1); cited from earlier work.
Data set [2] concerns BuChE. Particulars: ref Rook et al., 2010; Zhao et al., 2018; read-out: BuChE (bis-(2)-β-carboline 4, Figure 1); cited from earlier work.
The target of data set [3] is hAChE (Homo sapiens, UniProt P22303). As to the kind of experiment: biochemical. The conditions noted are these: for IC50: Mean ± SD from 3-5 assays, read-out: IC50 (nM) for cholinesterase hAChE. As for the experimental part: 50 μL of hAChE (0.02 unit/mL) or hBChE (0.02 unit/mL) were incubated with 10 μL of the compound in 96-well plates at 37°C for 6 min. Subsequently, 30 μL of a substrate solution containing acetylthiocholine iodide (ATCI) or butyrylthiocholine iodide (BTCI) at a concentration of 0.01 M was added, and the mixture was further incubated at 37°C for an additional duration of 12 min.
Chain of hAChE (P22303 32-614): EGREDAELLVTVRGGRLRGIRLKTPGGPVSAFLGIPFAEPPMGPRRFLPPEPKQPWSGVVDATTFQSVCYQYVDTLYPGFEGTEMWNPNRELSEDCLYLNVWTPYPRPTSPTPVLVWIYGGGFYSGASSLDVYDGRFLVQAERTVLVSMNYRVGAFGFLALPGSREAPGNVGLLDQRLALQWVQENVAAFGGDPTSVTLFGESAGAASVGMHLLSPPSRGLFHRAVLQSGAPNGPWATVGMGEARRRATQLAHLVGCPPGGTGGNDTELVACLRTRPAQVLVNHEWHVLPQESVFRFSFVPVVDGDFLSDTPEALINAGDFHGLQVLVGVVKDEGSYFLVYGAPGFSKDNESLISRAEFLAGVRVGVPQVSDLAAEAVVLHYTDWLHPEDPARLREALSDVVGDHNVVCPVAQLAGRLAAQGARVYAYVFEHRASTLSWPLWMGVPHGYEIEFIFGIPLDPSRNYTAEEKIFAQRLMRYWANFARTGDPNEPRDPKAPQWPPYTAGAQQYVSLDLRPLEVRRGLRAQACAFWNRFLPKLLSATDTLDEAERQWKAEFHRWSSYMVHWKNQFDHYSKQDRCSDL

Data set [4] concerns the target hBuChE (Homo sapiens, UniProt P06276). Description: Ellman's assay, hBuChE inhibition. The class given is biochemical. Particulars: for IC50: Mean ± SD from 3-5 assays, read-out: IC50 (nM) for cholinesterase hBuChE; for inhibition at 1 µM: compound at 1 μM, read-out: inhibition of hBuChE in primary screening. The procedure: The Ellman’s assay was utilized to assess the inhibitory potential of novel bis(7)-harmine derivatives against hAChE and hBuChE. 50 μL of hAChE (0.02 unit/mL) or hBChE (0.02 unit/mL) were incubated with 10 μL of the compound in 96-well plates at 37°C for 6 min. Subsequently, 30 μL of a substrate solution containing acetylthiocholine iodide (ATCI) or butyrylthiocholine iodide (BTCI) at a concentration of 0.01 M was added, and the mixture was further incubated at 37°C for an additional duration of 12 min. Finally, the activity was measured by adding 150 μL of a solution containing 5,5′−dithiobis (2-nitrobenzoic acid) (DTNB) at a concentration of 0.01 M, followed by measuring absorbance at a wavelength of 415 nm using an Evolution 300 PC UV-Vis Spectrophotometer.
(DTNB colorimetry detects thiols as they appear.)

In data set [5] the target is T1, recombinant hMAO-A (Homo sapiens, UniProt P21397).
T1 construct: purchased Sigma-Aldrich
T1 sequence (P21397 1-527): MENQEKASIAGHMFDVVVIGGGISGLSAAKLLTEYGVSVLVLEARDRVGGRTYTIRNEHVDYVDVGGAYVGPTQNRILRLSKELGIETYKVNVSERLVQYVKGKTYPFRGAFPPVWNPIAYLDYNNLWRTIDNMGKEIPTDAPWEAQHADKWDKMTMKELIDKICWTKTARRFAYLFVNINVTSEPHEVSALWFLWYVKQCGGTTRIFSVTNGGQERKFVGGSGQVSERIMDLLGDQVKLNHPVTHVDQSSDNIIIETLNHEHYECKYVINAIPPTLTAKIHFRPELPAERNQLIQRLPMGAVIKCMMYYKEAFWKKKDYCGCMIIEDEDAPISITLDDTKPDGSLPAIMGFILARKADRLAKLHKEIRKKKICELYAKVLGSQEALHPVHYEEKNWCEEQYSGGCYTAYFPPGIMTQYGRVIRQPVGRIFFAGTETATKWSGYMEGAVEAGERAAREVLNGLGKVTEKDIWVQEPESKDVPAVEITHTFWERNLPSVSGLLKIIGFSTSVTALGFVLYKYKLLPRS
As to the kind of experiment: biochemical. The conditions noted are these: for IC50: mean ± SD, read-out: IC50 (nM) for monoamine oxidases hMAO-A. The procedure:
(§1) Briefly, the compounds under investigation and the reference inhibitor were preincubated with kynuramine at 37°C for 10 min in 96-well microplates. […] The enzymatic reactions were terminated by adding 400 μL of 2 N NaOH and 1,000 μL of water, followed by centrifugation at 16,000 g for 10 min. Subsequently, the concentrations of MAOs that produced 4-hydroxyquinoline were determined by measuring the fluorescence of the supernatant using a Varioskan Flash Multimode Reader ([…]) with excitation and emission wavelengths set at 310 nm and 400 nm, respectively. The IC50 values were calculated from dose-response curves and expressed as the mean ± standard deviation. These values were determined based on at least three independent experiments, each performed in triplicate.

The target in data set [6] is T2, recombinant hMAO-B (Homo sapiens, UniProt P27338).
T2 construct: purchased Sigma-Aldrich
T2 sequence (P27338 1-520): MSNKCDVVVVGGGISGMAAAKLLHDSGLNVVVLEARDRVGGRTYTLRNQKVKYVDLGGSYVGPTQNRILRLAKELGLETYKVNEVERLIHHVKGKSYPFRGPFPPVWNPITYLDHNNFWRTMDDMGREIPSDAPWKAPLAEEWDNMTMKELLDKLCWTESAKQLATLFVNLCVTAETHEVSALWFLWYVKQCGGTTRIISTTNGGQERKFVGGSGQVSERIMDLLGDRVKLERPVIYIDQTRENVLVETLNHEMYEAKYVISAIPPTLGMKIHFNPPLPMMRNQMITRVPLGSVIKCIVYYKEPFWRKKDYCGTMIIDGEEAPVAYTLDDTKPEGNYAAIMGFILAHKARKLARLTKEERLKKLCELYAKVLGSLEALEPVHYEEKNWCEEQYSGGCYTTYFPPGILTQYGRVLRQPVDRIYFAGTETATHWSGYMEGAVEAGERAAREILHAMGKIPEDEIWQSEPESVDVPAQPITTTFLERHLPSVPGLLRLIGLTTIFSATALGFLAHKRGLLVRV
Description: biochemical. The conditions noted are these: for IC50: mean ± SD, read-out: IC50 (nM) for monoamine oxidases hMAO-B. The procedure:
as §1

Data set [7] has as its target Aβ 1−42 (Homo sapiens, UniProt P05067). Description: Thioflavin T fluorescence assay, Aβ 1−42 self-aggregation. Type of data set: biochemical. Particulars: Aβ 1-42 20 μM, 37°C, 24 h. As for the experimental part: The thioflavin T (Th-T) fluorescence assay was used to assess the inhibition of Aβ 1−42 self-aggregation. […] Subsequently, the reaction was terminated to a final volume of 200 μL using Th-T (10 μM) solution.

The test system of data set [8] is SHSY5Y cells. As to the kind of experiment: In vitro cytotoxicity, MTT assay. Type of data set: cell-based. As for the experimental part: Following this incubation period, the MTT solution was substituted with […] of DMSO and further incubated at room temperature for 10 minutes to dissolve formazan crystals formed by viable cells. Sorensen Buffer ([…]) was added subsequently followed by measuring absorbance at a wavelength of 570 nm to determine cell viability based on calculated values obtained from control samples without compound treatment. This experimental procedure was repeated independently three times.
Background: Tetrazolium dyes change colour on reduction, which living cells bring about.

Data set [9] has as its system SHSY5Y cells. As to the kind of experiment: Protection of SHSY5Y cells against damage induced by Aβ 1−42, MTT. The class given is cell-based, human. The procedure:
The protective effect of the test compounds against Aβ 1-42-induced damage was assessed by monitoring MTT reduction in cells co-exposed to the compound and Aβ 1-42 for 48 h (Figure 3) ([…]). The 6d, 8c, and 8d were tested at concentrations of 1, 5, and 10 μM. […] Therefore, it is imperative to elucidate the underlying mechanisms responsible for these protective effects.
The SHSY5Y cells were seeded in 96-well plates at a density of 1 × 10^4 cells per well and incubated at 37°C for 24 h. Each compound was dissolved in DMSO, followed by direct dilution in the cell culture medium to achieve final concentrations of 1 μM, 5 μM, and 10 μM. Aβ 1−42 was added to each well at a concentration of 5 μM. The cells were then further incubated at 37°C for an additional period of 48 h. Cell viability was subsequently assessed using the MTT assay protocol ([…]).

What is called inhibition is the change of the read-out against control, counted positive when it falls.

Chain of hBuChE (P06276 29-602): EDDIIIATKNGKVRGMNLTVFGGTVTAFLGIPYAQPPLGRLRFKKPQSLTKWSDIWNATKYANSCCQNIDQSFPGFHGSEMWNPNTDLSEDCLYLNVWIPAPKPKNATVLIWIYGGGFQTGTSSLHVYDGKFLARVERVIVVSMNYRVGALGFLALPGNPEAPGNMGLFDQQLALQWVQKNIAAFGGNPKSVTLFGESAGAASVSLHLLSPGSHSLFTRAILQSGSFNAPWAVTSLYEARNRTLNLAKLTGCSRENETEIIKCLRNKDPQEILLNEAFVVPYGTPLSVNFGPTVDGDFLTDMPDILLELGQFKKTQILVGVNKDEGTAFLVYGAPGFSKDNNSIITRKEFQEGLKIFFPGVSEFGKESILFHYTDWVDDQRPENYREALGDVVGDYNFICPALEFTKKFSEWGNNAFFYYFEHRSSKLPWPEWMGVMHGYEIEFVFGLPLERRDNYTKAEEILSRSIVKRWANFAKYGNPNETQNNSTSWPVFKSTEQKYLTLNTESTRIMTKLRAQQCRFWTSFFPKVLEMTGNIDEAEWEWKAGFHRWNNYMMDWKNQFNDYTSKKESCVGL
Chain of Aβ 1−42 (P05067 672-713 limits assumed): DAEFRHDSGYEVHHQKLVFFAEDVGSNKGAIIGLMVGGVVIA

On to `c1ccc2c(c1)[nH]c1c[n+](CCCCCCCCCCCC[n+]3ccc4c(c3)[nH]c3ccccc34)ccc12` [Compound 4], for which the IC50 in data set [1] was 86 nM; in data set [2] it was 22 nM.

In the case of `C=CCn1c2cc(OCCCCCCOc3ccc4c5ccnc(C)c5n(CC=C)c4c3)ccc2c2ccnc(C)c21` [Compound 6d, 1,6-bis ((9-allyl-1-methyl-9H-pyrido [3,4-b]indol-7-yl)oxy)hexane], the “S.I. Selectivity index IC50(hBuChE)/IC50(hAChE)” value in [3] turned out to be 1.9. Further, the IC50 amounted to 54.3 ± 3.6 nM in data set [3]; 102 ± 4.6 nM in data set [4]; 402 ± 23.7 nM in data set [5]; 189 ± 13.6 nM in [6]; 14.1 ± 0.5 µM in data set [7]. The “S.I. Selectivity index IC50(hMAO-B)/IC50(hMAO-A)” value in data set [5] is 0.5. For the same compound, in data set [8] (0.1–100 μM, 48 h incubation), the “effect on SHSY5Y cell viability” value is recorded as “no significant impact on cell viability”. The “cellular recovery from Aβ 1-42-induced damage” value in [9] (1 μM, co-exposed with Aβ 1-42 for 48 h) is “significant cellular recovery”.

Take `Cc1nccc2c3ccc(OCCCCCCCOc4ccc5c6ccnc(C)c6n(C)c5c4)cc3n(C)c12` [Compound 7a, 1,7-bis ((1,9-dimethyl-9H-pyrido [3,4-b]indol-7-yl)oxy)heptane]: in data set [3], the “S.I. Selectivity index IC50(hBuChE)/IC50(hAChE)” value is given as more than 4.4. Also, the IC50 in data set [3] was determined as 226 ± 13.4 nM; in data set [5], 7.2 ± 0.8 nM; in data set [6], 281 ± 24.5 nM; in [7] it was 6.3 ± 0.2 µM. The inhibition at 1 µM in [4] came to 37.3%. Moreover, the “S.I. Selectivity index IC50(hMAO-B)/IC50(hMAO-A)” value in data set [5] is on record as 40.1. For the same compound, the “effect on SHSY5Y cell viability” value in [8] (1 μM, 48 h) is listed as “pronounced detrimental effect”.

In the case of `CCCn1c2cc(OCCCCCCCOc3ccc4c5ccnc(C)c5n(CCC)c4c3)ccc2c2ccnc(C)c21` [Compound 7c, 1,7-bis ((1-methyl-9-propyl-9H-pyrido [3,4-b]indol-7-yl)oxy)heptane], in [3], the “S.I. Selectivity index IC50(hBuChE)/IC50(hAChE)” value is more than 25.6. The IC50 in [3] came to 39.2 ± 2.9 nM; in [5] it was 9.1 ± 0.6 nM; in data set [7], 13.3 ± 0.6 µM. Also, the inhibition at 1 µM was found to be 44.8% in data set [4] and 34.1% in data set [6] (compound at 1 μM, read-out: inhibition of hMAO-B in primary screening). The “S.I. Selectivity index IC50(hMAO-B)/IC50(hMAO-A)” value in data set [5] is reported as more than 111.1.

For `C=CCn1c2cc(OCCCCCCCOc3ccc4c5ccnc(C)c5n(CC=C)c4c3)ccc2c2ccnc(C)c21` [Compound 7d, 1,7-bis ((9-allyl-1-methyl-9H-pyrido [3,4-b]indol-7-yl)oxy)heptane], the IC50 in data set [3] is 896 ± 65.4 nM; in data set [4] it was 23.7 ± 1.3 nM; in data set [5], 74.6 ± 5.2 nM; in data set [6], 12.6 ± 0.76 nM; in [7], 17.1 ± 0.6 µM. For the same compound, the “S.I. Selectivity index IC50(hMAO-B)/IC50(hMAO-A)” value in data set [5] was determined as 0.2.

Turning to `Cc1nccc2c3ccc(OCCCCCCCCOc4ccc5c6ccnc(C)c6n(C)c5c4)cc3n(C)c12` [Compound 8a, 1,8-bis ((1,9-dimethyl-9H-pyrido [3,4-b]indol-7-yl)oxy)octane], the inhibition at 1 µM in data set [3] (compound at 1 μM, read-out: inhibition of hAChE in primary screening) was 42.2%; in data set [4] it was 39.1%. Besides, in [5], the “S.I. Selectivity index IC50(hMAO-B)/IC50(hMAO-A)” value turned out to be 10.0. Further, the IC50 in data set [5] was 95.2 ± 4.9 nM; in [6] it was 954 ± 49.8 nM; in data set [7], 16.5 ± 0.4 µM.

As for `CCn1c2cc(OCCCCCCCCOc3ccc4c5ccnc(C)c5n(CC)c4c3)ccc2c2ccnc(C)c21` [Compound 8b, 1,8-bis ((9-ethyl-1-methyl-9H-pyrido [3,4-b]indol-7-yl)oxy)octane], the “S.I. Selectivity index IC50(hBuChE)/IC50(hAChE)” value in [3] was 2.7. In addition, the IC50 amounted to 324 ± 20.5 nM in data set [3]; 855 ± 48.8 nM in data set [4]; 66.5 ± 4.1 nM in data set [5]; 758 ± 52.6 nM in data set [6]; 18.7 ± 0.9 µM in data set [7]. For the same compound, the “S.I. Selectivity index IC50(hMAO-B)/IC50(hMAO-A)” value in [5] is listed as 11.5. Moreover, in [8] (1 μM, 48 h), the “effect on SHSY5Y cell viability” value was “pronounced detrimental effect”.

`CCCn1c2cc(OCCCCCCCCOc3ccc4c5ccnc(C)c5n(CCC)c4c3)ccc2c2ccnc(C)c21` [Compound 8c, 1,8-bis ((1-methyl-9-propyl-9H-pyrido [3,4-b]indol-7-yl)oxy)octane]: the “S.I. Selectivity index IC50(hBuChE)/IC50(hAChE)” value in data set [3] is on record as more than 6.3. Also, the IC50 stood at 158 ± 11.6 nM in data set [3], 16.4 ± 1.1 nM in [5], 153 ± 8.3 nM in data set [6] and 19.3 ± 1 µM in data set [7]. The inhibition at 1 µM in data set [4] was found to be 43.4%. The “S.I. Selectivity index IC50(hMAO-B)/IC50(hMAO-A)” value in data set [5] amounted to 9.5. In addition, in data set [8] (0.1 to 10 μM, 48 h), the “cytotoxicity in SHSY5Y cells” value is recorded as “negligible cytotoxicity”. In addition, in data set [8] (concentration increased to 10 μM (so in the source), 48 h), the “SHSY5Y cell viability at increased concentration” value was “evident decrease in SHSY5Y cell viability”.

On to “Aβ 1−42: amyloid-β peptide 1−42 used to induce damage in SHSY5Y cells [reference compound]”, for which the “reduction of viability of SHSY5Y neuroblastoma cells” value in data set [9] (treatment with Aβ 1−42 5 μM, 48 h, MTT) amounted to 48.7%.
